Data: patent publication US8193349B2, “4-benzylamino-1-carboxylacyl-piperidine derivatives as CETP inhibitors” (Novartis AG, priority 2007, dated 2012)

The compounds below were run against T1, CETP (Homo sapiens, UniProt P11597) (assay: In vitro CETP activity assay in human plasma). Conditions: CETP inhibition; Table 1 does not name the assay, it follows the human plasma assay; read-out: IC50 (nM), Inhibitory Activity of Compounds.
T1 construct: tissue New Drug Development Research Center, Inc; host or cells: human EDTA plasma from healthy men
T1 sequence (P11597 18-493): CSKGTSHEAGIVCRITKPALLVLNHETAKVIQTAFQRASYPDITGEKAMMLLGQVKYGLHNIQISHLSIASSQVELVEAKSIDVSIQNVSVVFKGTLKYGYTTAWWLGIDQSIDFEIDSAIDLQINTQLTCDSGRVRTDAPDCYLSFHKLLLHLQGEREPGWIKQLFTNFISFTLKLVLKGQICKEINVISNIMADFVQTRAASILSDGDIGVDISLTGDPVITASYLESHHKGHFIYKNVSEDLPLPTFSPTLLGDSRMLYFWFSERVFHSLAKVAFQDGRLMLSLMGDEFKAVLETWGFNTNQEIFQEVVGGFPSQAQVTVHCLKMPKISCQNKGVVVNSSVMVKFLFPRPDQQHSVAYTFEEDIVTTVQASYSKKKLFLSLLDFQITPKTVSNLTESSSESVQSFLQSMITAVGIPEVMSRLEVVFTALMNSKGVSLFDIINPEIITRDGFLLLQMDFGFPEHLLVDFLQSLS
Format: biochemical
Description: The cDNA of human pro-apoAI (NCBI accession number: NM_000039) is cloned from human liver Quick-Clone™ cDNA (Clontech, CA) and inserted to a pET28a vector (Novagen, Germany) for bacterial expression. Expressed protein as a fusion protein with 6×His-tag at N-terminus in BL-21 Gold (DE3) (Strategene, CA) is purified using HiTrap Chelating (GE Healthcare, CT).
Pro-apoAI containing microemulsion as a donor particle is prepared following previous reports (J. Biol. Chem., 280:14918-22). Glyceryl trioleate (62.5 ng, Sigma, Mo.), 3-sn-phosphatidylcholine (583 ng, Wako Pure Chemical Industries, Japan), and cholesteryl BODIPY® FL C12 (250 ng, Invitrogen, CA) are dissolved in 1 mL of chloroform. The solution is evaporated, then residual solvent is removed in vacuum for more than 1 hr. The dried lipid mixture is dissolved in 500 μL of the assay buffer (50 mM Tris-HCl (pH7.4) containing 150 mM NaCl and 2 mM EDTA) and sonicated at 50° C. with a microtip (MICROSON™ ULTRASONIC CELL DISRUPTOR, Misonix, Farmingdale, N.Y.) at output power 006 for 2 min. After sonication, the solution is cooled to 40° C., added to 100 μg of human pro-apoAI, and sonicated at output power 004 for 5 min at 40° C. The solution, BODIPY-CE microemulsion as a donor molecule is stored at 4° C. after filtration through a 0.45 μm PVDF filter.
Human EDTA plasma samples from healthy men are purchased from New Drug Development Research Center, Inc. Donor solution is prepared by a dilution of donor microemulsion with assay buffer. Human plasma (50 μL), assay buffer (35 μL) and test compound dissolved in dimethylsulfoxide (1 μL) are added to each well of 96 well half area black flat bottom plate. The reaction is started by the addition of donor solution (14 μL) into each well. Fluorescence intensities are measured every 30 min at 37° C. with excitation wave length of 485 nm and emission wavelength of 535 nm. The CETP activity (FI/min) is defined as the changes of fluorescence intensity from 30 to 90 min.
An IC50 of 98 nM was found for `C[C@@H]1C[C@H](N(Cc2cc(C(F)(F)F)cc(C(F)(F)F)c2)c2ncc(-c3cnn(C)c3)cn2)C[C@H](C)N1C(=O)O[C@H]1CC[C@H](C(=O)O)CC1` [Example 1-19] in this work.
An IC50 of 135 nM was found for `CC[C@@H]1C[C@H](N(Cc2cc(C(F)(F)F)cc(C(F)(F)F)c2)c2ncc(-c3cnn(C)c3)cn2)C[C@H](CC)N1C(=O)OCCCCC(=O)O` [Example 1-5] in this work.
An IC50 of 63 nM was found for `CC[C@@H]1C[C@H](N(Cc2cc(C(F)(F)F)cc(C(F)(F)F)c2)c2ncc(-c3cnn(C)c3)cn2)C[C@H](CC)N1C(=O)OCC(C)(C)CCC(=O)O` [Example 1-11] in this work.
An IC50 of 86 nM was found for `CC[C@@H]1C[C@H](N(Cc2cc(C(F)(F)F)cc(C(F)(F)F)c2)c2ncc(-c3cnn(C)c3)cn2)C[C@H](CC)N1C(=O)O[C@H]1C[C@H](C(=O)O)C1` [Example 1-17] in this work.
An IC50 of 91 nM was found for `CC[C@@H]1C[C@H](N(Cc2cc(Cl)cc(Cl)c2)c2ncc(-c3cnn(C)c3)cn2)C[C@H](CC)N1C(=O)O[C@H]1CC[C@H](C(=O)O)CC1` [Example 1-20] in this work.
An IC50 of 99 nM was found for `CC[C@@H]1C[C@H](N(Cc2cc(F)cc(C(F)(F)F)c2)c2ncc(-c3cnn(C)c3)cn2)C[C@H](CC)N1C(=O)O[C@H]1CC[C@H](C(=O)O)CC1` [Example 1-22] in this work.
An IC50 of 69 nM was found for `CC[C@@H]1C[C@H](N(Cc2cc(C(F)(F)F)cc(C(F)(F)F)c2)c2ncc(-c3cnn(C)c3)cn2)C[C@H](CC)N1C(=O)O[C@H]1CC[C@H](C(=O)O)CC1` [Example 1-8] in this work.
An IC50 of 68 nM was found for `CC[C@@H]1C[C@H](N(Cc2cc(C(F)(F)F)cc(C(F)(F)F)c2)c2ncc(-c3cnn(C)c3)cn2)C[C@H](CC)N1C(=O)OCCCCC(N)=O` [Example 4, cis-4-{[3,5-bis(trifluoromethyl)benzyl]-[5-(1-methyl-1H-pyrazol-4-yl)-pyrimidin-2-yl]-amino}-2,6-diethyl-piperidine-1-carboxylic acid 4-carbamoyl-butyl ester] in this work.
An IC50 of 152 nM was found for `CC[C@@H]1C[C@H](N(Cc2cc(C(F)(F)F)cc(C(F)(F)F)c2)c2ncc(-c3cnn(C)c3)cn2)C[C@H](CC)N1C(=O)O[C@H]1C[C@H](C(C)(C)C(=O)O)C1` [Example 1-27] in this work.
An IC50 of 142 nM was found for `CC[C@@H]1C[C@H](N(Cc2cc(C(F)(F)F)cc(C(F)(F)F)c2)c2ncc(-c3cnn(C)c3)cn2)C[C@H](CC)N1C(=O)[C@H]1CC[C@H](CC(=O)O)CC1` [Example 1-2] in this work.
